Consider 15 molecules from patent US20180264146A1, “NOVEL IMAGING COMPOUNDS” (AC IMMUNE S.A., priority 2015, published 2018).

Bounds are passed on as bounds.

In experiment [1] the target is Tau in human Alzheimer disease brain homogenate (stage Braack V), [18F]-labeled Tau-Reference binder (Homo sapiens, UniProt P10636). Briefly: Tau radio-binding competition assay. The following applies: competition with [18F]-labeled Tau-Reference binder, human AD brain homogenate. How it is done:
Tau Radio-Binding Competition Assay
20 μg of human Alzheimer disease brain homogenate (stage Braack V) was incubated with a dilution series of each test compound (1000 to 0.06 nM) in the presence of 800 Bq of [^18F]-labeled Tau-Reference binder. The samples were shaken at 110 rpm for 45 min at 37° C. Samples were then filtered through GF/B 96 well filter plates and two times washed with 300 μl assay buffer (PBS containing 0.1% BSA and 2% DMSO). Thereafter, filter plates were sealed and a Fuji Film Imaging Plate (BAS-SR2025) were placed on top. The imaging plate was analyzed the next day using a Fuji Film BAS-5000. Non-specific signal was determined with samples containing [^18F]-labeled Tau-Reference binder in the presence of assay buffer missing brain substrate and competitor. Specific binding was calculated by subtracting the non-specific signal from the measured sample signal. The unblocked [^18F]-labeled Tau-Reference binder signal was defined as total binding. IC50 values were calculated by Prism V6 (GraphPad) using total binding as 100%.

Another experiment has as its target T1, MAO-A human-recombinant (Homo sapiens, UniProt P21397).
T1 construct: purchased Sigma-Aldrich M7316
T1 sequence (P21397 1-527): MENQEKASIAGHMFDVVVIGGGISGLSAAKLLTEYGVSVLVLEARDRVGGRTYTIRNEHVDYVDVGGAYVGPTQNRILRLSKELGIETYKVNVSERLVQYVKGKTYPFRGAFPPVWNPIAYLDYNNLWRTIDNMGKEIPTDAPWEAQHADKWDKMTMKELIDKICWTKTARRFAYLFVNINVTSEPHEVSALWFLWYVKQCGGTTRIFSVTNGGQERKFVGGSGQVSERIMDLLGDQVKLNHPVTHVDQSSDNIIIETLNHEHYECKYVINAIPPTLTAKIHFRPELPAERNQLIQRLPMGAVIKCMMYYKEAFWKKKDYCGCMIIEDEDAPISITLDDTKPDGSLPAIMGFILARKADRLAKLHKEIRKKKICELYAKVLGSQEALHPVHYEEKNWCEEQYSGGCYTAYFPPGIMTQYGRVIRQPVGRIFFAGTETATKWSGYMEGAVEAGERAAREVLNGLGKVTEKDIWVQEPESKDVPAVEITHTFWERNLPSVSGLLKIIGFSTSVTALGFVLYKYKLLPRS
Briefly: Monoamine oxidase A (MAO-A) assay (MAO-Glo). The format is biochemical. The note with it: read-out: MAO A binding. How it is done: Monoamine Oxidase A (MAO-A) Assay
Compounds were tested for their capacity to modulate MAO-A activity within the MAO-Glo™ Assay (Promega, Cat.# V1402). In each well of a 96-well plate, 12.5 μl of 4×MAO Substrate solution (end-concentration in assay: 40 μM) were mixed with 12.5 μl of a 4× solution of the corresponding test compound (end-concentrations ranged from 10 μM to 1.37 nM). In the absence of a test compound (i.e. to gauge the total MAO-A activity), the corresponding volume of MAO Reaction Buffer (100 mM HEPES (pH 7.5), 5% glycerol) was added. To initiate the MAO reaction, 25 μl of 2×MAO-A enzyme solution (MAO-A human-recombinant, Sigma-Aldrich, Cat.# M7316; 1 μg MAO-A enzyme/25 μl MAO Reaction Buffer) were added per well and mixed briefly. For negative control reactions, 25 μl of MAO Reaction Buffer were added. Thereafter the plate was incubated at room temperature for 1 hour, following which, 50 μl of reconstituted Luciferin Detection Reagent were added per well and mixed briefly. The plate was then incubated at room temperature for 20 minutes to generate and stabilize the luminescent signal. The luminescent signal was subsequently measured and recorded on the TopCountNXT™ luminescence counter (PerkinElmer). Data were analyzed and graphs were prepared using the Graphpad Prism 6 software.

The target in the next experiment is T2, MAO-B human-recombinant (Homo sapiens, UniProt P27338).
T2 construct: purchased Sigma-Aldrich M7441
T2 sequence (P27338 1-520): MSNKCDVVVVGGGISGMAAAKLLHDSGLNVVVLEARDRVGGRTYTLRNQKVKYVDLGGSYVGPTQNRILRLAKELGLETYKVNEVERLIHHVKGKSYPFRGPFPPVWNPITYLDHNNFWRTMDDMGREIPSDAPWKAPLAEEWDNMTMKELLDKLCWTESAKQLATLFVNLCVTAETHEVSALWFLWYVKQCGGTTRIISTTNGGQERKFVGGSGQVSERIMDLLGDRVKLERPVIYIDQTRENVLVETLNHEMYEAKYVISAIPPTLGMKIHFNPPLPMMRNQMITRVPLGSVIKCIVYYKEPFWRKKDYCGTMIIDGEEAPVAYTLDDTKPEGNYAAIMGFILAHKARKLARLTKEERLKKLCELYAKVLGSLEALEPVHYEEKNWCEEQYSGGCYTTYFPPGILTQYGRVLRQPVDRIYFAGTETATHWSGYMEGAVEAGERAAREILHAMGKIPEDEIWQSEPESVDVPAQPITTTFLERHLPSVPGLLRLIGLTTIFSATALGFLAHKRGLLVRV
Briefly: MAO-B assay (MAO-Glo). The format is biochemical. The following applies: read-out: MAO B binding. How it is done:
Compounds were tested for their capacity to modulate MAO-B activity within the MAO-Glo™ Assay (Promega, Cat.# V1402). In each well of a 96-well plate, 12.5 μl of 4×MAO Substrate solution (end-concentration in assay: 4 μM) were mixed with 12.5 μl of a 4× solution of the corresponding test compound (end-concentrations ranged from 10 μM to 1.37 nM). In the absence of a test compound (i.e. to gauge the total MAO-B activity), the corresponding volume of MAO-B Reaction Buffer (100 mM HEPES (pH 7.5), 5% glycerol, 10% dimethyl sulphoxide) was added. To initiate the MAO reaction, 25 μl of 2×MAO-B enzyme solution (MAO-B human—recombinant, Sigma-Aldrich, Cat.# M7441; 1 μg MAO-B enzyme/25 μl MAO-B Reaction Buffer) were added per well and mixed briefly. For negative control reactions, 25 μl of MAO-B Reaction Buffer were added. Thereafter the plate was incubated at room temperature for 1 hour, following which, 50 μl of reconstituted Luciferin Detection Reagent were added per well and mixed briefly. The plate was then incubated at room temperature for 20 minutes to generate and stabilize the luminescent signal. The luminescent signal was subsequently measured and recorded on the TopCountNXT™ luminescence counter (PerkinElmer). Data were analyzed and graphs were prepared using the Graphpad Prism 6 software.

Chain of Tau in human Alzheimer disease brain homogenate (stage Braack V), [18F]-labeled Tau-Reference binder (P10636 623-695 limits assumed): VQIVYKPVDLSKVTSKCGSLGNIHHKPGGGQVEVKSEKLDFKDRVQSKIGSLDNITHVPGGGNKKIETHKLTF

Consider `OC1(CF)CCN(c2ccc3c(n2)[nH]c2ccncc23)CC1` [Example 8], for which the figures for the IC50 (in experiment [1]; at MAO-A human-recombinant; at MAO-B human-recombinant) were 0.04 µM, 0.94 µM and above 1 µM, respectively.

The molecule `[2H]C([2H])(F)CCOC1CCN(c2ccc3c(n2)[nH]c2ccncc23)CC1` [Example 19] returned an IC50 in experiment [1] of 0.0023 µM.

Take `OC(CF)COC1CCN(c2ccc3c(n2)[nH]c2ccncc23)CC1` (stereo not shown) [Example 7]: the results for the IC50 (in experiment [1]; on MAO-B human-recombinant) were 0.003 µM and above 1 µM, respectively.

Take `F[C@@H]1CCN(c2ccc3c(n2)[nH]c2ccncc23)C1` [Example 6]: the IC50 in experiment [1] is 0.007 µM; on MAO-A human-recombinant it was 0.94 µM; on MAO-B human-recombinant it was above 1 µM.

As to `F[C@@H]1CCCN(c2ccc3c(n2)[nH]c2ccncc23)C1` [Example 25], the IC50 turned out to be 0.0054 µM in experiment [1] and 1.02 µM at MAO-A human-recombinant.

As to `FC1CC2(CCN(c3ccc4c(n3)[nH]c3ccncc34)CC2)C1` [Example 28], in experiment [1], the IC50 was 0.0052 µM.

In turn, `FCCOCCC1CCN(c2ccc3c(n2)[nH]c2ccncc23)CC1` [Example 21] yielded an IC50 in experiment [1] of 0.0015 µM.

Take `FCCOC1CC2(C1)CN(c1ccc3c(n1)[nH]c1ccncc13)C2` [Example 13]: the values for the IC50 (in experiment [1]; at MAO-A human-recombinant; at MAO-B human-recombinant) were 0.016 µM, above 2 µM and above 1 µM, respectively.

On to `FC1CCN(c2ccc3c(n2)[nH]c2ccncc23)CC1` [Example 27], for which the IC50 in experiment [1] came to 0.003 µM.

Take `F[C@H]1CCN(c2ccc3c(n2)[nH]c2ccncc23)C1` [Example 1]: the IC50 in experiment [1] was 0.006 µM; on MAO-A human-recombinant, above 1 µM; on MAO-B human-recombinant it was above 1 µM.

With `FCC(F)COC1CCN(c2ccc3c(n2)[nH]c2ccncc23)CC1` (stereo not shown) [Example 24], the IC50 in experiment [1] turned out to be 0.008 µM.

Turning to `FCCOC1CCN(c2ccc3c(n2)[nH]c2ccncc23)CC1` [Example 2], the figures for the IC50 (in experiment [1]; on MAO-A human-recombinant; at MAO-B human-recombinant) were 0.004 µM, above 6 µM and above 1 µM, respectively.

With `FCCOCCOC1CCN(c2ccc3c(n2)[nH]c2ccncc23)CC1` [Example 5], the IC50 is 0.006 µM in experiment [1], above 2 µM at MAO-A human-recombinant and above 1 µM at MAO-B human-recombinant.

`F[C@H]1CCCN(c2ccc3c(n2)[nH]c2ccncc23)C1` [Example 26] had an IC50 in experiment [1] of 0.016 µM.

For the molecule `FC1CC2(C1)CN(c1ccc3c(n1)[nH]c1ccncc13)C2` [Example 12], the results for the IC50 (in experiment [1]; on MAO-A human-recombinant; at MAO-B human-recombinant) were 0.013 µM, 0.57 µM and above 1 µM, respectively.
